This note sets out measurements from patent US9012436B2, “Lipid composition” (Diurnal Limited, priority 2008, dated 2015).

This series in a line: Solubilisation capacity of formulation systems for testosterone. How it is done:
The formulation systems as detailed in Table 1 all show significant solubilisation capacity for testosterone (>50 mg/^1) which is at least 100-fold higher than that achievable in aqueous media (<0.3 mg/g^1) and at least 5-fold higher than that achievable in single component lipidic vehicles alone (max.<10 mg/g).
^1N.B: For aqueous systems 1 g=1 mL; for oil systems 1 g=>1 mL

The structures appear in SMILES notation.

For the molecule `C[C@]12CC[C@H]3[C@@H](CCC4=CC(=O)CC[C@@]43C)[C@@H]1CC[C@@H]2O` [testosterone], the “Solubility of testosterone achievable in aqueous media” value (aqueous media) was less than 0.3 mg/g. In addition, under “single component lipidic vehicles, max.”, the “Solubility of testosterone achievable in single component lipidic vehicles alone” value is on record as less than 10 mg/g.
